US7704982B2, “2-methylene-19-nor-1α-hydroxy-17-ene-homopregnacalciferol and its uses” (Wisconsin Alumni Research Foundation, priority 2004, dated 2010)
pEC50, pKi: −log10 of the molar value.

Experiments:
[1] = Bone calcium mobilization (serum calcium) in vitamin D-deficient rats; type: in vivo, Sprague-Dawley rats; settings: 0.02% Ca diet
Experimental: (§1) Male, weanling Sprague-Dawley rats were placed on Diet 11 (0.47% Ca)+AEK for one week followed by Diet 11 (0.02% Ca)+AEK for 3 weeks. The rats were then switched to the same diet containing 0.47% Ca for one week followed by two weeks on the same diet containing 0.02% Ca. Dose administration began during the last week on 0.02% calcium diet. Four consecutive ip doses were given approximately 24 hours apart. Twenty-four hours after the last dose, blood was collected from the severed neck and the concentration of serum calcium determined by atomic absorption spectrometry as a measure of bone calcium mobilization. The first 10 cm of the intestine was also collected for intestinal calcium transport analysis using the everted gut sac method.

[2] = tested on: Human promyelocytic leukemia (HL60) cells; test: HL-60 cell differentiation (nitro blue tetrazolium reduction); type: cell-based; settings: 4 days, FIG. 2
Experimental: The study drugs were dissolved in ethanol and the concentrations determined using UV spectrophotometry. Serial dilutions were prepared so that a range of drug concentrations could be tested without changing the final concentration of ethanol (≦0.2%) present in the cell cultures.
Human promyelocytic leukemia (HL60) cells were grown in RPMI-1640 medium containing 10% fetal bovine serum. The cells were incubated at 37° C. in the presence of 5% CO2.
HL60 cells were plated at 1.2×10^5 cells/ml. Eighteen hours after plating, cells in duplicate were treated with drug. Four days later, the cells were harvested and a nitro blue tetrazolium reduction assay was performed (Collins et al., 1979; J. Exp. Med. 149:969-974). The percentage of differentiated cells was determined by counting a total of 200 cells and recording the number that contained intracellular black-blue formazan deposits. Verification of differentiation to monocytic cells was determined by measuring phagocytic activity (data not shown).

[3] = tested on: 24-hydroxylase (24Ohase) gene promoter; test: In vitro transcription assay (luciferase reporter) in ROS 17/2.8 (bone) cells; type: cell-based; settings: ROS 17/2.8 cells, 24Ohase promoter-luciferase, 16 h; FIG. 3; read-out: EC50, transcriptional activity in bone cells
Experimental: Transcription activity was measured in ROS 17/2.8 (bone) cells that were stably transfected with a 24-hydroxylase (24Ohase) gene promoter upstream of a luciferase reporter gene (Arbour et al., 1998). Cells were given a range of doses. Sixteen hours after dosing the cells were harvested and luciferase activities were measured using a luminometer.
RLU=relative luciferase units.

[4] = Intestinal calcium transport, everted gut sac method, in vitamin D-deficient rats; type: in vivo, Sprague-Dawley rats; settings: FIG. 6
Experimental: as §1

[5] = target: T1, full-length recombinant rat vitamin D receptor (Rattus norvegicus, UniProt P13053); test: Vitamin D receptor competitive binding with [3H]-1,25(OH)2D3; settings: full-length recombinant rat VDR; FIG. 1; read-out: Ki, competition with [3H]-1,25(OH)2D3 for binding to the vitamin D receptor
T1 construct: Full-length recombinant rat receptor was expressed in E. coli; histidine tag (C); made in house; host or cells: E. coli BL21 (DE3) Codon Plus RIL
T1 sequence (P13053 1-423): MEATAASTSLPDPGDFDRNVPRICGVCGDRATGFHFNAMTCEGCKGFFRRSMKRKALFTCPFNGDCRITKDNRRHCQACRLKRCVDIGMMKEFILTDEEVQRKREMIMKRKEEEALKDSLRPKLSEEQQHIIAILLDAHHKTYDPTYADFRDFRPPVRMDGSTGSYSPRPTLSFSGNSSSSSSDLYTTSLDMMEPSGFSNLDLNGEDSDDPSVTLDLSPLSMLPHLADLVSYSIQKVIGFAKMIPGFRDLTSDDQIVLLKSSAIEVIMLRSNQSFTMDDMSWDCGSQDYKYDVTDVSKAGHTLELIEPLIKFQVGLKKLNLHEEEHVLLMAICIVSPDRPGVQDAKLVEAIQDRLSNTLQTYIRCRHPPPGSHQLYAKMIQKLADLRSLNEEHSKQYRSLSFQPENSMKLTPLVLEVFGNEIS
Experimental: Full-length recombinant rat receptor was expressed in E. coli BL21 (DE3) Codon Plus RIL cells and purified to homogeneity using two different column chromatography systems. The first system was a nickel affinity resin that utilizes the C-terminal histidine tag on this protein. The protein that was eluted from this resin was further purified using ion exchange chromatography (S-Sepharose Fast Flow). Aliquots of the purified protein were quick frozen in liquid nitrogen and stored at −80° C. until use. For use in binding assays, the protein was diluted in TEDK50 (50 mM Tris, 1.5 mM EDTA, pH7.4, 5 mM DTT, 150 mM KCl) with 0.1% Chaps detergent. The receptor protein and ligand concentration were optimized such that no more than 20% of the added radiolabeled ligand was bound to the receptor.
Radiolabeled and unlabeled ligands were added to 100 mcl of the diluted protein at a final ethanol concentration of ≦10%, mixed and incubated overnight on ice to reach binding equilibrium. The following day, 100 mcl of hydroxylapatite slurry (50%) was added to each tube and mixed at 10-minute intervals for 30 minutes. The hydroxylapaptite was collected by centrifugation and then washed three times with Tris-EDTA buffer (50 mM Tris, 1.5 mM EDTA, pH 7.4) containing 0.5% Titron X-100. […] Total binding was determined from the tubes containing only radiolabeled ligand.

Row | Compound | serum calcium levels (bone calcium mobilization) ([1]; all dosages tested (FIG. 4)) | pEC50 [2] | pEC50 [3] | intestinal calcium transport ([4]; 780 pmol/day ip for 4 days) | mobilization of bone calcium (serum calcium) ([1]; 780 pmol/day ip for 4 consecutive days) | mobilization of bone calcium (serum calcium) ([1]; 2340 pmol/day ip for 4 consecutive days) | mobilization of bone calcium (serum calcium) ([1]; 7020 pmol/day ip for 4 consecutive days) | pEC50 ([2]; Homo sapiens, HL-60, 96 h) | pKi [5] | intestinal calcium transport ([4]; 2340 pmol/day ip for 4 days) | intestinal calcium transport ([4]; 7020 pmol/day ip for 4 days)
1 | C=C1/C(=C\C=C2/CCC[C@]3(C)[C@@H]([C@H](C)CCCC(C)(C)O)CC[C@@H]23)C[C@@H](O)C[C@@H]1O [1,25(OH)2D3, 1α,25-dihydroxyvitamin D3, reference compound] | increased serum calcium levels | 8.21 | 9.66 | promotes a significant increase | – | – | – | – | – | – | –
2 | C=C1[C@H](O)CC(=C/C=C2\CCC[C@]3(C)C(=C(C)C)CCC23)C[C@H]1O (stereo partly drawn) [VIT-I, 2-methylene-19-nor-1α-hydroxy-17-ene-homopregnacalciferol] | – | – | 8.22 | does not promote intestinal calcium transport | did not result in mobilization of bone calcium | without any substantial effect | without any substantial effect | 7.89 | 9.72 | does not promote intestinal calcium transport | does not promote intestinal calcium transport
